Laboratory results published in PubChem BioAssay (NCI).
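The compound was tested at five concentrations on cells cultured in 96-well plates, with a 48-hour exposure period. GI50 marks 50% less growth. TGI denotes the concentration required for complete inhibition of growth.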

Columns and labels:
Assay in all cases: DTP human tumour cell line panel, 48 h
[1] = test system: HT29 colon
[2] = test system: U251 CNS
[3] = test system: MDA-MB-231 breast
[4] = test system: LOX IMVI melanoma
[5] = test system: OVCAR-3 ovarian
[6] = test system: KM12 colon
[7] = test system: M14 melanoma
[8] = test system: SN12C renal
[9] = test system: SR leukemia
[10] = test system: SK-MEL-2 melanoma
[11] = test system: HCT-116 colon
[12] = test system: A498 renal
[13] = test system: EKVX NSCLC
[14] = test system: NCI-H460 lung
[15] = test system: A549 NSCLC
[16] = test system: COLO 205 colon
[17] = test system: HOP-62 NSCLC
[18] = test system: HCT-15 colon
[19] = test system: T-47D breast
[20] = test system: UO-31 renal
[21] = test system: HOP-92 NSCLC
[22] = test system: SF-539 CNS
[23] = test system: MOLT-4 leukemia
[24] = test system: BT-549 breast
[25] = test system: NCI-H522 lung
[26] = test system: MDA-MB-435
[27] = test system: NCI/ADR-RES ovarian
[28] = test system: CCRF-CEM leukemia
[29] = test system: CAKI-1 renal
[30] = test system: 786-0 renal
[31] = test system: OVCAR-5 ovarian
[32] = test system: RPMI-8226 leukemia
[33] = test system: K-562 leukemia
[34] = test system: DU-145 prostate
[35] = test system: MCF7 breast
[36] = test system: TK-10 renal
[37] = test system: SNB-75 CNS
[38] = test system: SNB-19 CNS
[39] = test system: SW-620 colon
[40] = test system: HL-60(TB) leukemia
[41] = test system: RXF 393 renal
[42] = test system: NCI-H226 lung
[43] = test system: OVCAR-4 ovarian
[44] = test system: SK-MEL-28 melanoma
[45] = test system: SF-268 CNS
[46] = test system: SK-OV-3 ovarian
[47] = test system: NCI-H23 lung
[48] = test system: HCC-2998 colon
[49] = test system: UACC-257 melanoma
[50] = test system: MALME-3M melanoma
[51] = test system: PC-3 prostate
[52] = test system: ACHN renal
[53] = test system: IGROV1 ovarian
[54] = test system: OVCAR-8 ovarian
[55] = test system: HS 578T breast
[56] = test system: UACC-62 melanoma
[57] = test system: SK-MEL-5 melanoma
[58] = test system: SF-295 CNS

With `CNC(=O)c1ccc(N2C(=S)N(c3ccc(C#N)c(C(F)(F)F)c3)C(=O)C2(C)C)cc1F` the GI50 [1] was 43.3 µM, the TGI [1] was > 100 µM and the GI50 [2] was 43 µM. The TGI [2] was > 79.7 µM, the GI50 [3] was > 38.6 µM and the TGI [3] was > 60.6 µM. For the same compound, the GI50 [4] was 36.5 µM, the TGI [4] was > 62.2 µM and the GI50 [5] was 36.5 µM. The TGI [5] was > 84.5 µM, the GI50 [6] was 48.1 µM and the TGI [6] was > 91.1 µM. For the same compound, the GI50 [7] was 32.4 µM, the TGI [7] was > 65.3 µM and the GI50 [8] was 38.6 µM. For the same compound, the TGI [8] was > 100 µM, the GI50 [9] was 17.9 µM and the TGI [9] was > 100 µM. For the same compound, the GI50 [10] was 36.2 µM, the TGI [10] was > 71.9 µM and the GI50 [11] was 23.9 µM. The TGI [11] was > 58.2 µM, the GI50 [12] was > 35.3 µM and the TGI [12] was > 71 µM. The GI50 [13] was 25 µM, the TGI [13] was > 80.5 µM and the GI50 [14] was 28.2 µM. The TGI [14] was > 74.3 µM, the GI50 [15] was 33.6 µM and the TGI [15] was > 95.4 µM. For the same compound, the GI50 [16] was 32 µM, the TGI [16] was > 57.7 µM and the GI50 [17] was 25.1 µM. For the same compound, the TGI [17] was > 67.2 µM, the GI50 [18] was 33.2 µM and the TGI [18] was > 89.3 µM. The GI50 [19] was 27.9 µM, the TGI [19] was 97 µM and the GI50 [20] was 8.83 µM. The TGI [20] was 34.9 µM, the GI50 [21] was 16.5 µM and the TGI [21] was > 48.9 µM. The GI50 [22] was > 48.6 µM, the TGI [22] was > 87.3 µM and the GI50 [23] was 33.1 µM. For the same compound, the TGI [23] was > 100 µM, the GI50 [24] was 22.3 µM and the TGI [24] was > 73.4 µM. The GI50 [25] was 50.9 µM, the TGI [25] was > 100 µM and the GI50 [26] was 41.9 µM. The TGI [26] was > 79.3 µM, the GI50 [27] was 33.3 µM and the TGI [27] was > 100 µM. The GI50 [28] was 30 µM, the TGI [28] was > 100 µM and the GI50 [29] was 31 µM. For the same compound, the TGI [29] was > 52 µM, the GI50 [30] was > 44.2 µM and the TGI [30] was > 73.5 µM. The GI50 [31] was > 47.5 µM, the TGI [31] was > 92.4 µM and the GI50 [32] was 24.4 µM. The TGI [32] was > 80 µM, the GI50 [33] was 33.9 µM and the TGI [33] was > 100 µM. The GI50 [34] was 53.9 µM, the TGI [34] was > 100 µM and the GI50 [35] was 33.9 µM. For the same compound, the TGI [35] was > 82.3 µM, the GI50 [36] was > 54.8 µM and the TGI [36] was > 100 µM. For the same compound, the GI50 [37] was 42.2 µM, the TGI [37] was > 79.9 µM and the GI50 [38] was > 61.2 µM. The TGI [38] was > 100 µM, the GI50 [39] was > 52.6 µM and the TGI [39] was > 100 µM. For the same compound, the GI50 [40] was 33.7 µM, the TGI [40] was > 100 µM and the GI50 [41] was 35.8 µM. The TGI [41] was > 66 µM, the GI50 [42] was 39.7 µM and the TGI [42] was > 71.9 µM. The GI50 [43] was 31.8 µM, the TGI [43] was > 100 µM and the GI50 [44] was > 51.8 µM. For the same compound, the TGI [44] was > 96.1 µM, the GI50 [45] was > 52.3 µM and the TGI [45] was > 100 µM. The GI50 [46] was > 51 µM, the TGI [46] was > 93.1 µM and the GI50 [47] was 30.2 µM. For the same compound, the TGI [47] was > 89.6 µM, the GI50 [48] was > 40.7 µM and the TGI [48] was > 65.8 µM. For the same compound, the GI50 [49] was 35.1 µM, the TGI [49] was > 80.7 µM and the GI50 [50] was 20.9 µM. For the same compound, the TGI [50] was > 82.1 µM, the GI50 [51] was 30.3 µM and the TGI [51] was > 100 µM. The GI50 [52] was 22.4 µM, the TGI [52] was > 62.9 µM and the GI50 [53] was 40.3 µM. For the same compound, the TGI [53] was > 100 µM, the GI50 [54] was 50.2 µM and the TGI [54] was > 100 µM. For the same compound, the GI50 [55] was > 43.1 µM, the TGI [55] was > 86.8 µM and the GI50 [56] was 26.9 µM. The TGI [56] was > 72.4 µM, the GI50 [57] was 20.3 µM and the TGI [57] was 50 µM. The GI50 [58] was 28.9 µM and the TGI [58] was > 75.9 µM.
